Results reported in ChEMBL document CHEMBL2074050, “Reversal of MRP-mediated multidrug resistance in human lung cancer cells by the antiprogestatin drug RU486” (Biochem Biophys Res Commun, 1999).
Blank lines part the entries; values can stand above or below the compound they belong to.

Columns and labels:
Format in all cases: functional, cell-based
[1] = molecular target: T1, Multidrug resistance-associated protein 1 (Homo sapiens, UniProt P33527); assay: TP_TRANSPORTER: increase in Calcein intracellular accumulation (Calcein: 0.5 uM, RU486: 50 uM) in GLC4/Sb30 cells; conditions: glc4/sb30, 50 µM
[2] = molecular target: T1, Multidrug resistance-associated protein 1; assay: TP_TRANSPORTER: increase in Calcein intracellular accumulation (Calcein: 0.5 uM, Probenecid: 2000 uM) in GLC4/Sb30 cells; conditions: glc4/sb30, 2000 µM
[3] = molecular target: T1, Multidrug resistance-associated protein 1; assay: TP_TRANSPORTER: increase in Calcein intracellular accumulation (Calcein: 0.5 uM, Progesterone: 50 uM) in GLC4/Sb30 cells; conditions: glc4/sb30, 50 µM

T1 sequence (P33527 whole entry): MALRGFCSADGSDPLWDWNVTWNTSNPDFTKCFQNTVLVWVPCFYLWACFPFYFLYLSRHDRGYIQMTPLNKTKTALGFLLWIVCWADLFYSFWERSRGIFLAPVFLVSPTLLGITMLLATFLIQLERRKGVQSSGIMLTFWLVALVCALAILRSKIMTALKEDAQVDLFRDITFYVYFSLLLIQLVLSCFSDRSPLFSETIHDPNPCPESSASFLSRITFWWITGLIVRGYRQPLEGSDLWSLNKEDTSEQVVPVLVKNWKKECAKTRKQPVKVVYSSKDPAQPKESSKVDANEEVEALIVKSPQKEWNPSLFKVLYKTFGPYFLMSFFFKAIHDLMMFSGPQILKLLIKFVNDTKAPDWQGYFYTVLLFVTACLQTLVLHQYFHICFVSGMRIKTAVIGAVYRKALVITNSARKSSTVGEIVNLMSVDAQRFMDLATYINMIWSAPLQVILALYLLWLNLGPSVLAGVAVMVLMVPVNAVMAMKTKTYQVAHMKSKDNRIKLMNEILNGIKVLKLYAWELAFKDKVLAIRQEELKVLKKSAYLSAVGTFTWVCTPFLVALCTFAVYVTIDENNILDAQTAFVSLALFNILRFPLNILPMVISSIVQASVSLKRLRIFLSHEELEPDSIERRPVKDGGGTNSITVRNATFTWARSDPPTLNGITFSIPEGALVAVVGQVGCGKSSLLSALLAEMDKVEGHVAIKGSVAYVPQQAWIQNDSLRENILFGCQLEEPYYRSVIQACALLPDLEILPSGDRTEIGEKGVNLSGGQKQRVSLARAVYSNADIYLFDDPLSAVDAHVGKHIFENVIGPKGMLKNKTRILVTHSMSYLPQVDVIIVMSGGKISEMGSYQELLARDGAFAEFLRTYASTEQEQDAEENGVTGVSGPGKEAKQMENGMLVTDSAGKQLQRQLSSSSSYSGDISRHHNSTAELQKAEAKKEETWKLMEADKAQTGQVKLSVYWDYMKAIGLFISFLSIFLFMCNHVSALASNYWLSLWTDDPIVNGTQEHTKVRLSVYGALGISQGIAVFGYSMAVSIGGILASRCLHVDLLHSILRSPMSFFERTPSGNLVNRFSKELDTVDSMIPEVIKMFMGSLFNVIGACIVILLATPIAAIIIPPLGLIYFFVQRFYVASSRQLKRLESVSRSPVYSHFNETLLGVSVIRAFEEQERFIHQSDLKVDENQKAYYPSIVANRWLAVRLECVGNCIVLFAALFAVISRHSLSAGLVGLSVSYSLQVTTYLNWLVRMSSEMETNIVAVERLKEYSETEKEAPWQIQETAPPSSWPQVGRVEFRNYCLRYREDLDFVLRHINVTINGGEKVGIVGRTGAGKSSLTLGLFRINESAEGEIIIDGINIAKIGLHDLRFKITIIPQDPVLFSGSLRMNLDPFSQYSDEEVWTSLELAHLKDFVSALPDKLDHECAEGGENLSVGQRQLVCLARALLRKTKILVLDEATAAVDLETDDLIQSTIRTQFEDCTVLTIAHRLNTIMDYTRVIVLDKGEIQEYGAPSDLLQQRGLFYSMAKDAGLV

Activity [1]: inhibitor [+]
SMILES: CC#C[C@]1(O)CC[C@H]2[C@@H]3CCC4=CC(=O)CCC4=C3[C@@H](c3ccc(N(C)C)cc3)C[C@@]21C [MIFEPRISTONE]

Activity [2]: inhibitor [+]
SMILES: CCCN(CCC)S(=O)(=O)c1ccc(C(=O)O)cc1 [PROBENECID]

SMILES: CC(=O)[C@H]1CC[C@H]2[C@@H]3CCC4=CC(=O)CC[C@]4(C)[C@H]3CC[C@]12C [PROGESTERONE]
Activity [3]: inhibitor [+]
